Reference: patent US20130225629A1, “TARGETING PI3K/MTOR SIGNALLING AND NEUTROPHIL RECRUITMENT FOR TREATMENT OF ENTERITIS” (THE UNIVERSITY OF NORTH CAROLINA AT CHAPEL HILL, priority 2012, published 2013)

Key:
neutrophils (MPO) = test: Myeloperoxidase (MPO) immunohistochemistry of colon, neutrophil infiltration; type: in vivo, mice; settings: in the presence of AS252424
Experimental: Deparaffinized colon sections were treated with 3% H2O2 for 10 minutes to quench endogenous peroxidases. Antigen retrieval was performed using microwave heating for 10 min in 10 mM citrate buffer pH 6.0. Sections were blocked in 5% goat serum TBS-T for 1 hour. The slides were incubated overnight at 4° C. with an anti-MPO antibody (1:400) (Thermo Scientific, Hampton, N.H., United States of America). Secondary biotinylated antibody was diluted at 1:1000 with the VECTASTAIN® ABC Elite Kit (Vector Laboratories, Inc., Burlingame, Calif., United States of America). Visualization was performed using DAB chromogen (Dako, Inc., Carpinteria, Calif., United States of America). Finally, sections were counterstained with hematoxylin for 5 seconds. Sections were imaged at the OLYMPUS® microscope using DP 71 camera and DP Controller 3.1.1.276 (Olympus, Center Valley, Pa., United States of America).
Neutrophils in intestinal tissue were detected using anti-myeloperoxidase (MPO) IHC as described previously (Sun et al., 2012). Briefly, intestinal tissue sections were deparaffinized, blocked and incubated with an anti-MPO antibody (1:400; Thermo Scientific, Hampton, N.H., United States of America) overnight. […]

C. jejuni = type: in vivo, mice
Text: All animal protocols were approved by the Institutional Animal Care and Use Committee of the University of North Carolina at Chapel Hill (Chapel Hill, N.C., United States of America). Germ-free 8 to 12 week old II10^−/−; NF-κBEGFP (129/SvEv; C57BL/6 mixed background) mice were transferred from germ-free isolators and immediately gavaged with 10^9 C. jejuni cfu/mouse (strain 81-176 (Korlath et al., 1985)). Mice were then housed under Specific Pathogen-Free (SPF) conditions and sacrificed at 5 or 12 days. Germ-free II10^−/−; NF-κB^EGFP mice were also gavaged with 10^7 Salmonella typhimurium (S. typhimurium strain CA32) cfu/mouse for 2 days or 10^7 Escherichia coli (E. coli strain NC 101) cfu/mouse for 12 days. Conventionally-derived II10^−/−; NF-κB^EGFP mice were put on an antibiotic cocktail (streptomycin 2 g/L, gentamycin 0.5 g/L, bacteriocin 1 g/L and ciprofloxacin 0.125 g/L) in water for 7 days and antibiotics withdrawn 24 hours prior to infection. The mice were then gavaged with 10^9 C. jejuni cfu/mouse for 14 days. To inhibit mTOR signaling, mice were injected daily intraperitoneally (i.p.) with rapamycin (1.5 mg/kg) (Fisher Scientific, Hampton, N.H., United States of America). At the end of the experiment, mice were euthanized using CO2 intoxication. Colon, mesenteric lymph nodes (MLN) and spleen were collected for further processing RNA, protein or C. jejuni culture on Campylobacter selective blood plates (Remel, Thermo Scientific, Hampton, N.H., United States of America) for 48 h at 37° C. using the GasPak system (Becton Dickinson, Franklin Lakes, N.J., United States of America). […] Colons were fixed in 10% buffered formalin (Fisher Scientific, Hampton, N.H., United States of America) overnight, paraffin-embedded, sectioned, and stained with H&E for histological evaluation. Images were acquired using a DP71 camera and DP Controller 3.1.1.276 (Olympus, Center Valley, Pa., United States of America). Intestinal inflammation was scored by evaluating the degree of lamina propria immune cell infiltration, goblet cell depletion, architectural distortion, as well as crypt hyperplasia, ulceration, and abscesses using a score from 0-4. (Lippert et al., 2009). Cecal and colonic inflammation induced by S. typhimurium was evaluated using a score from 0-13 as described. (Hapfelmeier et al., 2005).
MLN and spleen were aseptically resected. Colon tissue was opened, resected and washed three times in sterile PBS. […] C. jejuni colonies were counted and data presented as colony forming unit (cfu)/g tissue.

O=C1NC(=O)/C(=C/c2ccc(-c3ccc(F)cc3O)o2)S1 [AS252424]
C. jejuni-induced neutrophil infiltration into colonic tissues (MPO staining) (neutrophils (MPO)): strongly reduced
levels of viable C. jejuni in the spleen (C. jejuni; AS252424 vs infected vehicle-treated mice): strongly reduced
decrease of viable C. jejuni in MLN (C. jejuni; mouse, in vivo): 90%
decrease of viable C. jejuni in colon (C. jejuni; mouse, in vivo): 97%
